Columns and labels:
Assay in all cases: relative viability (nuclei count vs DMSO), 5 days (fraction); higher = more cells survive
[1] = compound: COc1cccc2cc(-c3nc([C@H]4CC[C@H](C(=O)O)CC4)n4ncnc(N)c34)[nH]c12 [OSI-027] + COc1cc2c(Oc3ccc(NC(=O)C4(C(=O)Nc5ccc(F)cc5)CC4)cc3F)ccnc2cc1OCCCN1CCOCC1 [Foretinib] (partner 0.25 µM)
Procedure, shortened: (§1)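 Lung cancer cell lines, seeded in 1536-well plates, were treated the following day by pin tool with a single drug or with five library-drug doses (not always all listed) in √10 steps on top of a fixed anchor-drug dose. Cells were fixed and nuclei stained in one step after 5 days, and nuclei were counted. Relative viability is the nuclei count for treated wells divided by that for vehicle wells, reported as medians of duplicate plates.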

[2] = compound: COc1cccc2cc(-c3nc([C@H]4CC[C@H](C(=O)O)CC4)n4ncnc(N)c34)[nH]c12 [OSI-027] + CS(=O)(=O)CCNCc1ccc(-c2ccc3ncnc(Nc4ccc(OCc5cccc(F)c5)c(Cl)c4)c3c2)o1 [Lapatinib] (partner 2 µM)
Procedure, shortened: as §1

[3] = compound: Cc1nc(NC(=O)N2CCC[C@H]2C(N)=O)sc1-c1ccnc(C(C)(C)C(F)(F)F)c1 [Alpelisib] + COc1cc2c(Oc3ccc(NC(=O)C4(C(=O)Nc5ccc(F)cc5)CC4)cc3F)ccnc2cc1OCCCN1CCOCC1 [Foretinib] (partner 0.25 µM)
Procedure, shortened: as §1

[4] = compound: Cc1nc(NC(=O)N2CCC[C@H]2C(N)=O)sc1-c1ccnc(C(C)(C)C(F)(F)F)c1 [Alpelisib] + N=C(N)NC(=N)NCCc1ccccc1 [Phenformin] (partner 250 µM)
Procedure, shortened: as §1

## UMC-11
[1]; first compound 0.01 µM
  relative viability: 0.903
[1]; first compound 0.03162 µM
  relative viability: 0.866
[1]; first compound 0.1 µM
  relative viability: 0.77
[1]; first compound 0.3162 µM
  relative viability: 0.671
[1]; first compound 1 µM
  relative viability: 0.444
[2]; first compound 0.01 µM
  relative viability: 0.934
[2]; first compound 0.03162 µM
  relative viability: 0.939
[2]; first compound 0.1 µM
  relative viability: 0.805
[2]; first compound 0.3162 µM
  relative viability: 0.693
[2]; first compound 1 µM
  relative viability: 0.506
[3]; first compound 0.04 µM
  relative viability: 1.01
[3]; first compound 0.1265 µM
  relative viability: 1.05
[3]; first compound 0.4 µM
  relative viability: 1.12
[3]; first compound 1.265 µM
  relative viability: 0.839
[3]; first compound 4 µM
  relative viability: 0.875
[4]; first compound 0.04 µM
  relative viability: 0.302
[4]; first compound 0.1265 µM
  relative viability: 0.325
[4]; first compound 0.4 µM
  relative viability: 0.326
[4]; first compound 1.265 µM
  relative viability: 0.31
[4]; first compound 4 µM
  relative viability: 0.262

From the supplement of paper PMC10307832
